Consider 10 compounds from paper PMC4306314, “Differential neuroprotective potential of CRMP2 peptide aptamers conjugated to cationic, hydrophobic, and amphipathic cell penetrating peptides” (Frontiers in Cellular Neuroscience, 2015).

Like-named read-outs stand apart in the source and are kept apart here. Where no end group is shown, it is not given here. Where only a bound is given, the exact number is not on record here.

In data set [1] the test system is cortical neurons. Put plainly: Glutamate-induced toxicity, chromogenic cell viability assay. The format is cell-based, rat. The note with it: for Prevention of Glu/Gly-induced neuronal cell death by NMDAR subunit blockers: Ifenprodil 1 µM, Peaqx 5 µM, 10 min before and during 200 µM glutamate/20 µM glycine 30 min, 7 DIV, viability 24 h later, 32 wells. Here is the method: E19 neurons (grown in 96 well plates) were stimulated with 200 µM glutamate/20 µM glycine to induce neuronal death as previously described with modifications (Brittain et al., [2011a]). Neurons were pre-treated with peptides by removing half of the culture medium and replacing with fresh medium containing twice the final concentration of peptide. Neurons were then stimulated by removing half the medium and replacing with fresh medium containing 400 µM glutamate/40 µM glycine and 1X peptide concentration. Following a 30 min stimulation the medium was completely removed and replaced with half fresh/half conditioned medium. Cell viability was quantified 24 h later using the 3-(4,5-dimethylthiazol-2-yl)-5-(3-carboxymethoxyphenyl)-2-(4-sulfophenyl)-2H-tetrazolium cell viability assay (Promega, Madison, WI, USA) as previously described (Brittain et al., [2011a]). Subunit-specific NMDAR antagonists Peaqx (NR2A) and Ifenprodil (NR2B) were purchased from Sigma.

For data set [2] the following is noted: of the CPP itself; ref Sarko et al., 2010; cited from earlier work.
For data set [3], the system named is GPMVs derived from cortical neurons. Put plainly: Peptide penetration into giant plasma membrane vesicles (GPMVs), di-4-ANEPPDHQ staining. Type of data set: in vitro ADME, rat. The note with it: 10 µM peptide; for Change in percent of GPMVs with intracellular staining, vesicles from Glu/Gly-challenged vs unchallenged cells: neurons challenged 1 h with 200 µM glutamate + 20 µM glycine before vesiculation. Here is the method:
Giant plasma membrane vesicles (GPMVs) were obtained as previously described in Sezgin et al. ([2012]). Briefly, GPMVs were generated from cortical neurons incubated at 37°C for 90 min in a vesiculation buffer containing 10 mM HEPES, 150 mM NaCl, 2 mM CaCl2, pH 7.4 containing 2 mM N-ethyl maleimide (NEM). After GPMV formation, the buffer containing vesicles was recovered and conserved at 4°C for at least 2 h to allow the vesicles to concentrate at the bottom of the tube. As the GPMVs were stable for ~48 h (data not shown), they were used the day after formation at the latest.
All experiments for microscopic analyses of GPMVs were performed on 35 mm glass bottom dishes pre-coated with BSA (1 mg/mL for 1 h at room temperature). Approximately 100 µL of GMPVs labeled with 5 µM di-4-ANEPPDHQ were incubated for 3 h at room temperature with 10 µM of CBD3 peptide aptamers. di-4-ANEPPDHQ, a styryl dye that was originally developed to detect transmembrane potential changes, is considered to be a good probe for rafts (Jin et al., [2005]) and was used to label GPMVs. di-4-ANEPPDHQ is able to partition into both liquid-ordered and liquid-disordered phase domains in model membranes, reacts to the environmental difference between the two phases via conformational changes, thus resulting in different fluorescence properties (Jin et al., [2005]). Here, we studied the 500–550 nm emission of the probe, which accounts largely for the liquid ordered phase.
Fluorescence imaging was performed with an inverted microscope, Nikon Eclipse TE2000-U, using objective Nikon Super Fluor 20× 0.75 NA and a Photometrics cooled CCD camera CoolSNAPHQ-ES2 (Roper Scientific, Tucson, AZ, USA) controlled by MetaFluor 6.3 software (Molecular Devices, Downingtown, PA, USA). […] Twenty images of each condition were systematically recorded randomly, using a FITC filter (excitation and emission wavelength 488 nm and 500–550 nm, respectively), which accounted for the liquid ordered contribution of di-4-ANEPPDHQ or the localization of FITC-peptides.

Data set [4] deals with cortical neurons. The experiment in a line: Uptake and efflux of FITC-labeled CBD3 peptides from cortical neurons. Particulars: for Cumulative efflux (AUC), glutamate-challenged vs unchallenged cells, long-term application: chronic peptide treatment, media sampled up to 3 h. The format is in vitro ADME, rat. Here is the method:
Cortical neurons were seeded into 96-well plates at 3.5 × 10^4 cells per well and cultured until 7 DIV at 37°C and 5% CO2. […] After four washes with phenol red free Leibovitz medium, the FITC fluorescence in the cells was measured using a Synergy 2 fluorescent plate reader (Biotek, Winooski, VT, USA) at an excitation wavelength of 485 nm and emission wavelength of 530 nm. […] To correct for any differences in cell plating, at the end of the experiment cortical neurons were lysed with 20 mM Tris, pH 7.4, 50 mM NaCl, 1% NP40, 0.5% sodium deoxycholate, 0.1% SDS Protease inhibitor cocktail set III (Calbiochem), phosphatase inhibitor cocktail set I (Calbiochem), 50 U/ml benzonase (Merck) and the protein quantity determined with a Pierce assay.

The next data set deals with T1, CRMP2-NR2B interaction (Rattus norvegicus, UniProt Q00960).
T1 construct: Rat brains were lysed into the immunoprecipitation buffer; from tissue; host or cells: rat brain
Put plainly: Co-immunoprecipitation of NR2B with CRMP2 from rat brain lysates. Type of data set: binding. The note with it: 10 µM peptide, overnight 4°C, rat brain lysate, immunoblot, n = 4. Here is the method:
Rat brains were lysed into the immunoprecipitation buffer containing 20 mM Tris-HCl pH 7.4, 50 mM NaCl, 2 mM MgCl2, 1% (vol/vol) NP40, 0.5% (mass/vol) sodium deoxycholate with Protease/phosphatase inhibitors cocktails (Calbiochem) and Benzonase (50 U/mL^−1), using a dounce homogenizer. The lysates were clarified by centrifugation at 10000 g, 10 min, 4°C then total protein concentration was determined by BCA protein assay (Cat# PI23225, Thermo scientific). For the co-immunoprecipitation, 300 µg of total protein was incubated with 1 µg of CRMP2 antibody (Cat# C2993, Sigma, St. Louis, MO, USA) of non-specific rabbit IgG, in the presence of 10 µM of the indicated peptides and incubated overnight at 4°C under gentle agitation. Protein G magnetic beads (Cat# 10004D, Life Technologies) pre-equilibrated with the immunoprecipitation buffer, were added to the mixture and allowed to incubate for 1 h at 4°C to capture the immuno-complexes. The beads were washed four times with the immunoprecipitation buffer before re-suspension in Laemmli buffer and boiling at 95°C for 5 min prior to immunoblotting.
Indicated samples were loaded on 4–12% NuPAGE® gels (Life Technologies). […] Films were scanned, and quantified using Un-Scan-It gel version 6.1 scanning software (Silk Scientific Inc, Orem, UT, USA).

On the set-up of data set [5]: method as in Wender et al., 2000. Particulars: ref Wender et al., 2000; cited from earlier work.

T1 sequence (Q00960 27-1482, other chains not shown): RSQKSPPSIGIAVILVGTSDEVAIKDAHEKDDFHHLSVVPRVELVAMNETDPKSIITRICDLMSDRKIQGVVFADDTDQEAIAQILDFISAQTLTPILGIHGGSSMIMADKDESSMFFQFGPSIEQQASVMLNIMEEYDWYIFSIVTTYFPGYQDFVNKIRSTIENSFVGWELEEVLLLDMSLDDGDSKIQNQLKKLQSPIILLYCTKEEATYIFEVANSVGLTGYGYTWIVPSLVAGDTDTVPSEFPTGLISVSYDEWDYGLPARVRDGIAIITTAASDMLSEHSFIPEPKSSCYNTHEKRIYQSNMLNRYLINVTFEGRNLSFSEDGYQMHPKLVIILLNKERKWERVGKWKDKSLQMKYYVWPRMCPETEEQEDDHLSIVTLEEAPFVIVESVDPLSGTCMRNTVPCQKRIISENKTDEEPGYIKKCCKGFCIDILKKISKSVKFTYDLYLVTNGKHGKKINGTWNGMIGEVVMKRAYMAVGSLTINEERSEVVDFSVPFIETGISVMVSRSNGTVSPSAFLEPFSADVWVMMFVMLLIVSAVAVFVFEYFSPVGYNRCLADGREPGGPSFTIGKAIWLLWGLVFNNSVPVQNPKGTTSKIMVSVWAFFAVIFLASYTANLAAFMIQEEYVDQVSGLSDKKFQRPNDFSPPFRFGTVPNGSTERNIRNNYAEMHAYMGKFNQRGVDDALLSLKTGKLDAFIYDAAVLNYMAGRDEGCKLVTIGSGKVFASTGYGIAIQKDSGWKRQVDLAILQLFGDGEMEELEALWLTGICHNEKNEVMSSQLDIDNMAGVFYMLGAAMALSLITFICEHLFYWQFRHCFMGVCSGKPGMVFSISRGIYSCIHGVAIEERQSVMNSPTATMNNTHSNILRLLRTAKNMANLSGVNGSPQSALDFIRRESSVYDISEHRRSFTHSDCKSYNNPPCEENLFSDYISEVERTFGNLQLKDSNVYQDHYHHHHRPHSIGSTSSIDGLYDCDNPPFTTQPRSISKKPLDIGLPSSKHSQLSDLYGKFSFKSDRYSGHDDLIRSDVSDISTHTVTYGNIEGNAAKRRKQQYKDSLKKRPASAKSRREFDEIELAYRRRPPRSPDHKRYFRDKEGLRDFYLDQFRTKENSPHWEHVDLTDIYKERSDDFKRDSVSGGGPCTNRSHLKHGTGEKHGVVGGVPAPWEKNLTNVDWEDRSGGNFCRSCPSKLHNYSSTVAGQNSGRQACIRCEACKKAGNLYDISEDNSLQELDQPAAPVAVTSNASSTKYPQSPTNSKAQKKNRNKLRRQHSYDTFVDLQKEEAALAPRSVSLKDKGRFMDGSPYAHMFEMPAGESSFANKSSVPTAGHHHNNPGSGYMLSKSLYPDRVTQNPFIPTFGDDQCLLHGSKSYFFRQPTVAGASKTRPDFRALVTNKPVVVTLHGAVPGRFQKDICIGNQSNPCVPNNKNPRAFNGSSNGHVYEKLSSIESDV

Regarding `CC(C(O)c1ccc(O)cc1)N1CCC(Cc2ccccc2)CC1` (centres unmarked) [Ifenprodil, reference compound], in the data set on cortical neurons [1], the “Prevention of Glu/Gly-induced neuronal cell death by NMDAR subunit blockers” value was “completely prevent”. Take `C[C@H](NC(c1cccc2[nH]c(=O)c(=O)[nH]c12)P(=O)(O)O)c1ccc(Br)cc1` (some centres unmarked) [Peaqx, reference compound]: the “Prevention of Glu/Gly-induced neuronal cell death by NMDAR subunit blockers” value in the data set with cortical neurons [1] is listed as “not”.

Consider AAVALLPAVLLALLAP [MTS], for which the “Half-life (t1/2)” value in data set [2] was ~ 48 h. Turning to “AAVALLPAVLLALLAPARSRLAELRGVPRGL [MTS-CBD3]”, the “Change in percent of GPMVs with intracellular staining, vesicles from Glu/Gly-challenged vs unchallenged cells” value in data set [3] is reported as “did not alter”. In the data set on cortical neurons [4], the “Cumulative efflux (AUC), glutamate-challenged vs unchallenged cells, long-term application” value is listed as ~ 24%. As for KLALKLALKALKAALKLA [MAP], in data set [2], the “Half-life (t1/2)” value is greater than 72 h. For “KLALKLALKALKAALKLAARSRLAELRGVPRGL [MAP-CBD3]”, the “Inhibition of NR2B-CRMP2 interaction relative to no peptide control” value at CRMP2-NR2B interaction was ~ 60%. As for “RRRRRRRRR [R9, nona-arginine, cationic cell penetrating peptide]”, the “Half-life (t1/2)” value in data set [2] was ~ 2 h. The “Penetration compared to TAT” value in data set [5] is listed as “greater than 20 fold”. On to RRRRRRRRRARSRLAELRGVPRGL [R9-CBD3], for which the “Inhibition of NR2B-CRMP2 interaction relative to no peptide control” value on CRMP2-NR2B interaction is reported as ~ 80%. In the data set on cortical neurons [1] (24 h), this compound came in with a 50% inhibitory concentration (IC50) of roughly 0.564 µM. Turning to YGRKKRRQRRR [TAT], the “Half-life (t1/2)” value in data set [2] is recorded as ~ 9 h. For the compound YGRKKRRQRRRARSRLAELRGVPRGL [TAT-CBD3], the “Percent of GPMVs exhibiting lumenal accumulation of smaller vesicles” value in data set [3] (GPMVs from control (untreated) cortical neurons, 5 µM di-4-ANEPPDHQ, room temperature, 3 h (methods) or 60 min, fluorescence microscopy, n = 2 experiments) was ~ 54%. Besides, the “Change in percent of GPMVs with intracellular staining, vesicles from Glu/Gly-challenged vs unchallenged cells” value in data set [3] is given as “did not alter”. Moreover, the “Efflux fluorescence compared to MTS-CBD3-treated cells, long-term application” value in the data set with cortical neurons [4] (1, 2 and 3 h post peptide application, irrespective of excitotoxic challenge) is “lower”. Besides, the “Cumulative efflux (AUC), glutamate-challenged vs unchallenged cells, long-term application” value in the data set on cortical neurons [4] is recorded as “indistinguishable”. In the data set on cortical neurons [1] (concentration-response viability curve, four-parameter fit, variable Hill slope, 32 wells from two experiments, extrapolated, read-out: IC50 for inhibition of glutamate-mediated toxicity), the IC50 was 3.2 µM.
